Laboratory results: US20090030065A1, “Use of Pde1c and Inhibitors Thereof” (NYCOMED GmbH, priority 2005, published 2009)

What was measured:
Assay type in all cases: biochemical
human recombinant PDE1C1 = human recombinant PDE1C1 (Homo sapiens, UniProt Q14123); assay: Inhibition of recombinant PDE activity, SPA test: PDE1C1; conditions: for IC50: human recombinant enzyme, read-out: IC50 on PDE 1C1; for Selectivity for PDE1C1 versus other PDE family members tested: see Tab. 1
Protocol: Measurement of the Inhibition of Phosphodiesterase Activity Phosphodiesterase activity is measured in a modified SPA (scintillation proximity assay) test, supplied by Amersham Biosciences (see procedural instructions “phosphodiesterase [3H]cAMP SPA enzyme assay, code TRKQ 7090”), carried out in 96-well microtitre plates (MTP's): The test volume is 100 μl and contains 20 mM Tris buffer (pH 7.4), 0.1 mg of BSA (bovine serum albumin)/ml, 5 mM Mg^2+, 0.5 μM cGMP or cAMP (including about 50,000 cpm of [3H]cGMP or [3H]cAMP as a tracer; whether to use cAMP or cGMP depends on the substrate-specificity of the phosphodiesterase measured), 1 μl of the respective substance dilution in DMSO and sufficient recombinant PDE to ensure that 10-20% of the cGMP or cAMP is converted under the said experimental conditions. […] After a preincubation of 5 min at 37° C., the reaction is started by adding the substrate (cGMP) and the assay is incubated for a further 15 min; after that, it is stopped by adding SPA beads (50 μl). In accordance with the manufacturer's instructions, the SPA beads had previously been resuspended in water, but were then diluted 1:3 (v/v) in water; the diluted solution also contains 3 mM IBMX to ensure a complete PDE activity stop. After the beads have been sedimented (>30 min), the MTP's are analyzed in commercially available luminescence detection devices. The corresponding IC50 values of the compounds for the inhibition of PDE activity are determined from the concentration-effect curves by means of non-linear regression.
(§1) Compound A and B are analyzed for inhibition of PDE family members as described.

human recombinant PDE5A1 = human recombinant PDE5A1 (Homo sapiens, UniProt O76074); assay: Inhibition of recombinant PDE activity, SPA test: PDE5A1; conditions: human recombinant enzyme; read-out: IC50 on PDE 5A1
Protocol: (§2) Measurement of the Inhibition of Phosphodiesterase Activity Phosphodiesterase activity is measured in a modified SPA (scintillation proximity assay) test, supplied by Amersham Biosciences (see procedural instructions “phosphodiesterase [3H]cAMP SPA enzyme assay, code TRKQ 7090”), carried out in 96-well microtitre plates (MTP's): The test volume is 100 μl and contains 20 mM Tris buffer (pH 7.4), 0.1 mg of BSA (bovine serum albumin)/ml, 5 mM Mg^2+, 0.5 μM cGMP or cAMP (including about 50,000 cpm of [3H]cGMP or [3H]cAMP as a tracer; whether to use cAMP or cGMP depends on the substrate-specificity of the phosphodiesterase measured), 1 μl of the respective substance dilution in DMSO and sufficient recombinant PDE to ensure that 10-20% of the cGMP or cAMP is converted under the said experimental conditions. […] After a preincubation of 5 min at 37° C., the reaction is started by adding the substrate (cGMP) and the assay is incubated for a further 15 min; after that, it is stopped by adding SPA beads (50 μl). […] After the beads have been sedimented (>30 min), the MTP's are analyzed in commercially available luminescence detection devices. The corresponding IC50 values of the compounds for the inhibition of PDE activity are determined from the concentration-effect curves by means of non-linear regression.
as §1

human recombinant PDE4B2 = human recombinant PDE4B2 (Homo sapiens, UniProt Q07343); assay: Inhibition of recombinant PDE activity, SPA test: PDE4B2; conditions: human recombinant enzyme; read-out: IC50 on PDE 4B2
human recombinant PDE4B2, sequence (Q07343 1-564 isoform Q07343-2): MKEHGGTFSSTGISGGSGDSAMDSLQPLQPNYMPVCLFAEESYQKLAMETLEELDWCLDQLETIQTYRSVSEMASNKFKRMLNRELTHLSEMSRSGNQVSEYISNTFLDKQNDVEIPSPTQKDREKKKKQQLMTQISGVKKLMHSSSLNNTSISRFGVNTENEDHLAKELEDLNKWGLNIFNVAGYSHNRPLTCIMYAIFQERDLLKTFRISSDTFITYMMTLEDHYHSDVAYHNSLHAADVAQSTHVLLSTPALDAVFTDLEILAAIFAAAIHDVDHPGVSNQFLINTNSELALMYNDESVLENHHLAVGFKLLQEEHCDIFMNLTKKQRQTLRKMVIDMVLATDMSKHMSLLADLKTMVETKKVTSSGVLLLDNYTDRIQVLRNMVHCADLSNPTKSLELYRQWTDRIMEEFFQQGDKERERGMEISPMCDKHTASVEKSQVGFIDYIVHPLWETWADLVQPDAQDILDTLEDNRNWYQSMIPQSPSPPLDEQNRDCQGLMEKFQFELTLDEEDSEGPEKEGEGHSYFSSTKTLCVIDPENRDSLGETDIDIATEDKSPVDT
Protocol: as §2, §1

human recombinant PDE10A = human recombinant PDE10A (Homo sapiens, UniProt Q9Y233); assay: Inhibition of recombinant PDE activity, SPA test: PDE10A; conditions: human recombinant enzyme; read-out: IC50 on PDE 10A
human recombinant PDE10A, sequence (Q9Y233 290-1055 limits assumed): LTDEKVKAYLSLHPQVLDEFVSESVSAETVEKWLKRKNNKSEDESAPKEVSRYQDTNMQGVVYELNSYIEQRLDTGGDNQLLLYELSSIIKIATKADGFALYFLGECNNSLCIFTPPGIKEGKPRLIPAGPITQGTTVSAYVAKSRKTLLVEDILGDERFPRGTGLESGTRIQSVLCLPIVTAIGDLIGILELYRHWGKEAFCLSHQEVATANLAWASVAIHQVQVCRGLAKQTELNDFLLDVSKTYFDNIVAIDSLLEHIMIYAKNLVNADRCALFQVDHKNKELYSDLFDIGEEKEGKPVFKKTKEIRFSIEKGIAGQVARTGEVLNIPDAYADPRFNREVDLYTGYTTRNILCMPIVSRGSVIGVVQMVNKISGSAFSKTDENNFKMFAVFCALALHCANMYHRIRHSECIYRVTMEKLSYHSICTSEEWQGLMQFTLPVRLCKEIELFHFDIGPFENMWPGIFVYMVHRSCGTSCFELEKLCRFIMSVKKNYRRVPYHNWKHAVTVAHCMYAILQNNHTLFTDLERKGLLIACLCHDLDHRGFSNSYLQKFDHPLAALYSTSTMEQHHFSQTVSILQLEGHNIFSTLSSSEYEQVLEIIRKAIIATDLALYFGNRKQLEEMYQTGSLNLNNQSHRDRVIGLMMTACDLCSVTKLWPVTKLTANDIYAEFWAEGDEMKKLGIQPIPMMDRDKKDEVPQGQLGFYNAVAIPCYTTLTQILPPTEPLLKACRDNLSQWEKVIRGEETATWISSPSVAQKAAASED
Protocol: as §2, §1

[1] = biological target: human recombinant PDE11A4 (Homo sapiens, UniProt Q9HCR9); assay: Inhibition of recombinant PDE activity, SPA test: PDE11A4; conditions: human recombinant enzyme; read-out: IC50 on PDE 11A4
human recombinant PDE11A4, sequence (Q9HCR9 whole entry): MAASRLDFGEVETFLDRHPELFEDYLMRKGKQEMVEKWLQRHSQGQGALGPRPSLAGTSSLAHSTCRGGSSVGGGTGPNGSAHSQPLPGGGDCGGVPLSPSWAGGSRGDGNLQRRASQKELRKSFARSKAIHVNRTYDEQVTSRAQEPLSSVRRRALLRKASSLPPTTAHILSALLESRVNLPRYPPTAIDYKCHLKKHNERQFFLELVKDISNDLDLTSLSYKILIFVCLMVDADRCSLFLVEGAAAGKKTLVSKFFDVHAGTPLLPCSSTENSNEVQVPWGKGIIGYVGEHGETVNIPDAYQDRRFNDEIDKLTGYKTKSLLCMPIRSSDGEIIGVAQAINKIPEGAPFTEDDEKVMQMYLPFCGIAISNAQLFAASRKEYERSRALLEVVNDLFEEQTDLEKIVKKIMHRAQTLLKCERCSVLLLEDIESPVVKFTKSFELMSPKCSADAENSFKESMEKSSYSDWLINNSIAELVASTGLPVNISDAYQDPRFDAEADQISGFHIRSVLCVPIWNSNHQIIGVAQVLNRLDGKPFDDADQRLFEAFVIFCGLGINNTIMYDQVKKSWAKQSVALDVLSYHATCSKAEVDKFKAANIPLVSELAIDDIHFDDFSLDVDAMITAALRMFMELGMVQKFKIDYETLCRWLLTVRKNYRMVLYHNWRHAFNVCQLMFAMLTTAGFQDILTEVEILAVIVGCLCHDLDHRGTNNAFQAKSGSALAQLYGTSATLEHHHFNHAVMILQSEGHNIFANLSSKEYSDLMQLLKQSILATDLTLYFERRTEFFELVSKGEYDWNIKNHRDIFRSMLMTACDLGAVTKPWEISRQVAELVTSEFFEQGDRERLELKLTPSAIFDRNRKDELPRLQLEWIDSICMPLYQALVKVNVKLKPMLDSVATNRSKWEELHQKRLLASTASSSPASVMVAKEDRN
Protocol: as §2, §1

human recombinant PDE2A3 = human recombinant PDE2A3 (Homo sapiens, UniProt O00408); assay: Inhibition of recombinant PDE activity, SPA test: PDE2A3; conditions: human recombinant enzyme; read-out: IC50 on PDE 2A3
human recombinant PDE2A3, sequence (O00408 whole entry): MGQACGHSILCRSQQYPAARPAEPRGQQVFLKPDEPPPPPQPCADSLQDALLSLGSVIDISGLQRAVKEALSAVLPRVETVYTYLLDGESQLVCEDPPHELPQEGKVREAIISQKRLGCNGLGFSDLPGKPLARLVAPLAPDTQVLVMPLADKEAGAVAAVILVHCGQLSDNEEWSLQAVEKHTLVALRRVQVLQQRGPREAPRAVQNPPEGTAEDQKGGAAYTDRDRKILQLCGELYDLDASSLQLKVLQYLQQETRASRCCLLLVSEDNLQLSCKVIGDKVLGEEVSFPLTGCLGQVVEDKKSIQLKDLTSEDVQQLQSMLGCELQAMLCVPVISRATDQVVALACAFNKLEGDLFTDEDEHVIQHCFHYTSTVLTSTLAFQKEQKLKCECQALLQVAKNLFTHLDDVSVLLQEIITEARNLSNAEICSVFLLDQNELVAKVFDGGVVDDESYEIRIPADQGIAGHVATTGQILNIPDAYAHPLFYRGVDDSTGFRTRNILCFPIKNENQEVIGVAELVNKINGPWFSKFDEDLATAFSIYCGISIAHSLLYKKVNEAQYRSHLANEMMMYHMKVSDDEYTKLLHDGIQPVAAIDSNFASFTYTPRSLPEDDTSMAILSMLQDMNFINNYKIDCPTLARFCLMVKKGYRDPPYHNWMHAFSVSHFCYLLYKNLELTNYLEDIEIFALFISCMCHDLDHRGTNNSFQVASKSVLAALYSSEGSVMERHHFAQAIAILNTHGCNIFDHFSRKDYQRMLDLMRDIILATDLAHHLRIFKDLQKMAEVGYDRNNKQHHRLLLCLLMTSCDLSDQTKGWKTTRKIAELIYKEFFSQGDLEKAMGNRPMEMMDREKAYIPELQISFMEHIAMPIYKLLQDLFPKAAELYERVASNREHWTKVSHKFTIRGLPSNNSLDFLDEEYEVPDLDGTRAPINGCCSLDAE
Protocol: as §2, §1

human recombinant PDE3A1 = human recombinant PDE3A1 (Homo sapiens, UniProt Q14432); assay: Inhibition of recombinant PDE activity, SPA test: PDE3A1; conditions: human recombinant enzyme; read-out: IC50 on PDE 3A1
human recombinant PDE3A1, sequence (Q14432 whole entry): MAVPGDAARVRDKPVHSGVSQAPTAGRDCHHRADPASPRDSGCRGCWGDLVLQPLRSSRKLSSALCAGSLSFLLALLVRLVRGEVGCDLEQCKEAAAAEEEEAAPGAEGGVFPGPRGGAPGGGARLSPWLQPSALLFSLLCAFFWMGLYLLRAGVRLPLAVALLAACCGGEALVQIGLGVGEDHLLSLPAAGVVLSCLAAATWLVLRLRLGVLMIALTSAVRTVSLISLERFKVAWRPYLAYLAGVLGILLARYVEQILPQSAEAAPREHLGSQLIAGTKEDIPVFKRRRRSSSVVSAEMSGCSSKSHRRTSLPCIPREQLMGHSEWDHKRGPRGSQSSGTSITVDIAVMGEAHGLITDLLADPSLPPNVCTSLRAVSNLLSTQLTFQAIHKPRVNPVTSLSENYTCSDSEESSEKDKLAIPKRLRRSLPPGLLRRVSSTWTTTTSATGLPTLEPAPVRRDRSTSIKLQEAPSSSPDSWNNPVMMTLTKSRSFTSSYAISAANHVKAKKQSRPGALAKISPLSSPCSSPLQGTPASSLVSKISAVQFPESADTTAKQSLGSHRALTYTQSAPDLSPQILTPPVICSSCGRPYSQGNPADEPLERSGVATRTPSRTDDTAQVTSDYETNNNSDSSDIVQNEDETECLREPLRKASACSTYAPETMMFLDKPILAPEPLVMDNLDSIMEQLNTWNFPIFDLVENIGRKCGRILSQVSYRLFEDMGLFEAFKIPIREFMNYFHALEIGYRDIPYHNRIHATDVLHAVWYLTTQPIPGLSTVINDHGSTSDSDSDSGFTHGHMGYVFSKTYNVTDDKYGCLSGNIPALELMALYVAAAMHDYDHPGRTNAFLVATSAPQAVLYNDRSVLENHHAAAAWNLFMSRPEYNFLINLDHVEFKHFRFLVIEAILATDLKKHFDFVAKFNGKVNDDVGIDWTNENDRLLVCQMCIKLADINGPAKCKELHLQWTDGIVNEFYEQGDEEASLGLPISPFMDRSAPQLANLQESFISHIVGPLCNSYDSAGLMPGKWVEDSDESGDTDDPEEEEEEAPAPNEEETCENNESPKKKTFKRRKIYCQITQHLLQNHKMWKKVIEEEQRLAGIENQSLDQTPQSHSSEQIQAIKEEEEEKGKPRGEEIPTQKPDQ
Protocol: as §2, §1

PDE3 = assay: PDE isoenzyme activities in cellular lysates: PDE3; conditions: 10 μM, 0.5 μM cyclic AMP
Protocol: (§3) Cells (1-3×10^6) were washed twice in phosphate buffered saline (4° C.) and resuspended in 1 ml homogenization buffer (137 mM NaCl, 2.7 mM KCl, 8.1 mM Na2HPO4, 1.5 mM KH2PO4, 10 mM HEPES, 1 mM EGTA, 1 mM MgCl2, 1 mM-mercaptoethanol, […], […], 50 mM phenylmethylsulfonyl fluoride, 10 mM soybean trypsin inhibitor, 2 mM benzamidine, pH 8.2). Cells were disrupted by sonication (Branson sonifier, 3×15 s) and lysates were immediately used for phosphodiesterase (PDE) activity measurements. PDE activities were assessed in cellular lysates as described (Thompson & Appleman, 1979) with some modifications (Bauer & Schwabe, 1980). The assay mixture (final volume […]) contained (mM): Tris HCl 30; pH 7.4, MgCl2 5, 0.5 μM either cyclic AMP or cyclic GMP as substrate including [^3H]cAMP or [^3H]cGMP (about 30 000 c.p.m. per well), […], PDE isoenzyme-specific activators and inhibitors as described below and cellular lysates. Incubations were performed for 60 min at 37° C. and reactions were terminated by adding […] 0.2 M HCl per well. Assays were left on ice for 10 min and then […] 5′-nucleotidase (Crotalus atrox) was added. […] Columns were eluted with 2 ml 30 mM ammonium formiate (pH 6.0) and radioactivity in the eluate was counted. […] Briefly, PDE4 was calculated as the difference of PDE activities at 0.5 μM cyclic AMP in the presence and absence of 1 μM Piclamilast. […]

PDE2 = biological target: T1, PDE2 (Homo sapiens, UniProt O00408); assay: PDE isoenzyme activities in cellular lysates: PDE2; conditions: 100 nM
T1 construct: endogenous in cells
T1 sequence (O00408 whole entry): as the sequence (O00408 whole entry) above
Protocol: as §3

PDE4 = assay: PDE isoenzyme activities in cellular lysates: PDE4; conditions: 1 μM, 0.5 μM cyclic AMP
Protocol: as §3

PDE5 = biological target: T2, PDE5 (Homo sapiens, UniProt O76074); assay: PDE isoenzyme activities in cellular lysates: PDE5; conditions: 100 nM, 0.5 μM cyclic GMP
T2 construct: PDE activities were assessed in cellular lysates; endogenous in cells
Protocol: Cells (1-3×10^6) were washed twice in phosphate buffered saline (4° C.) and resuspended in 1 ml homogenization buffer (137 mM NaCl, 2.7 mM KCl, 8.1 mM Na2HPO4, 1.5 mM KH2PO4, 10 mM HEPES, 1 mM EGTA, 1 mM MgCl2, 1 mM-mercaptoethanol, 5 mM pepstatin A, 10 mM leupeptin, 50 mM phenylmethylsulfonyl fluoride, 10 mM soybean trypsin inhibitor, 2 mM benzamidine, pH 8.2). Cells were disrupted by sonication (Branson sonifier, 3×15 s) and lysates were immediately used for phosphodiesterase (PDE) activity measurements. PDE activities were assessed in cellular lysates as described (Thompson & Appleman, 1979) with some modifications (Bauer & Schwabe, 1980). The assay mixture (final volume 200 ml) contained (mM): Tris HCl 30; pH 7.4, MgCl2 5, 0.5 μM either cyclic AMP or cyclic GMP as substrate including [^3H]cAMP or [^3H]cGMP (about 30 000 c.p.m. per well), 100 mM EGTA, PDE isoenzyme-specific activators and inhibitors as described below and cellular lysates. Incubations were performed for 60 min at 37° C. and reactions were terminated by adding 50 ml 0.2 M HCl per well. Assays were left on ice for 10 min and then 25 mg 5′-nucleotidase (Crotalus atrox) was added. Following an incubation for 10 min at 37° C. assay mixtures were loaded onto QAE-Sephadex A25 columns (1 ml bed volume). Columns were eluted with 2 ml 30 mM ammonium formiate (pH 6.0) and radioactivity in the eluate was counted. […]

human recombinant PDE1C1, sequence (Q14123 1-634 isoform Q14123-2): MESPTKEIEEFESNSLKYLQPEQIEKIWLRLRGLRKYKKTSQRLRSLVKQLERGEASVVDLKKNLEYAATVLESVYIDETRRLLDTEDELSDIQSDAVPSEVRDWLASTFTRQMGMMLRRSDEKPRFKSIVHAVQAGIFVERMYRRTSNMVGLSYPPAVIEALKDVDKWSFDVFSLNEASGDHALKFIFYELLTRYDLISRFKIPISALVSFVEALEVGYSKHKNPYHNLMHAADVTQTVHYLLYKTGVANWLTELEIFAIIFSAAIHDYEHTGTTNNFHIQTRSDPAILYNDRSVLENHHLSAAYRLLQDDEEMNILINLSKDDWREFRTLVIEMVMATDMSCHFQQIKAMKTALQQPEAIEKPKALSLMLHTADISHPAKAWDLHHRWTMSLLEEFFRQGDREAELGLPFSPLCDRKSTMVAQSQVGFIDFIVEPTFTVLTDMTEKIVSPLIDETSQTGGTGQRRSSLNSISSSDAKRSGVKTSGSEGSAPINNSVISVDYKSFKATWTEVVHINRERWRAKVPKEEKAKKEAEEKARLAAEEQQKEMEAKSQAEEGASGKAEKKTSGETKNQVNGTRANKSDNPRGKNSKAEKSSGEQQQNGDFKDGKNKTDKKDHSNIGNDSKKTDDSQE

Row | IC50 value on human recombinant PDE1C1, in words (human recombinant PDE1C1) | IC50 (human recombinant PDE1C1) [µM] | IC50 (human recombinant PDE5A1) [µM] | IC50 (human recombinant PDE4B2) [µM] | IC50 (human recombinant PDE10A) [µM] | IC50 [1] [µM] | IC50 (human recombinant PDE2A3) [µM] | IC50 (human recombinant PDE3A1) [µM] | SMILES | Selectivity for PDE1C1 versus other PDE family members tested (human recombinant PDE1C1) | other results
1 | in the nanomolar range | 0.083 | > 100 | > 100 | > 100 | > 100 | > 100 | > 100 | CC(C)(C)CC(C)(C)c1ccc(OCC(=O)N/N=C/c2ccc(-c3cccc(C(=O)O)c3)o2)c([N+](=O)[O-])c1 [Compound A] | selective versus other PDE family members tested | –
2 | in the nanomolar range | 0.1 | 16 | 9.3 | 77 | 22 | 13 | > 100 | Cc1ccc(/C(O)=C2/C(=O)C(=O)N(c3ccccc3)C2=S)cc1 [Compound B, 4-[Hydroxy(4-methylphenyl)methylidene]-1-phenyl-5-thioxopyrrolidine-2,3-dione] | selective versus other PDE family members tested | –
3 | – | – | – | – | – | – | – | – | CC1CC(=O)NN=C1c1cc(-n2ccnc2)cs1 (stereo not shown) [Motapizone] | – | Block of PDE3 activity (PDE3): completely blocked
4 | – | – | – | – | – | – | – | – | COc1ccc(Cc2nc3c(ncn3C(CCCc3ccccc3)C(C)=O)c(=O)[nH]2)cc1OC (stereo not shown) [PDP] | – | Inhibition of cyclic GMP-induced cyclic AMP degrading activity increment (PDE2) (PDE2): completely inhibited
5 | – | – | – | – | – | – | – | – | COc1ccc(C(=O)Nc2c(Cl)cncc2Cl)cc1OC1CCCC1 [Piclamilast] | – | Block of PDE4 activity (PDE4): completely blocked
6 | – | – | – | – | – | – | – | – | CCCc1nn(C)c2c(=O)[nH]c(-c3cc(S(=O)(=O)N4CCN(C)CC4)ccc3OCC)nc12 [Sildenafil] | – | Block of PDE5 activity (PDE5): completely blocked
